The structures appear in SMILES notation. pEC50: −log10 of the molar value. Where two headings read alike, the source gives them in different places.

The values below come from publication PMC4819188, “BitterX: a tool for understanding bitter taste in humans” (Scientific Reports, 2016).

Assay in all cases: calcium imaging (Fluo-4) dose-response, HEK293T
What all share (assay type): cell-based

For one test, the target named is T1, TAS2R14 (Homo sapiens, UniProt Q9NYV8).
T1 construct: full ORF from human genomic DNA with N-terminal rhodopsin tag (first 20 residues), pCI; HEK293T with Galpha16/gust44
T1 sequence (Q9NYV8 1-317): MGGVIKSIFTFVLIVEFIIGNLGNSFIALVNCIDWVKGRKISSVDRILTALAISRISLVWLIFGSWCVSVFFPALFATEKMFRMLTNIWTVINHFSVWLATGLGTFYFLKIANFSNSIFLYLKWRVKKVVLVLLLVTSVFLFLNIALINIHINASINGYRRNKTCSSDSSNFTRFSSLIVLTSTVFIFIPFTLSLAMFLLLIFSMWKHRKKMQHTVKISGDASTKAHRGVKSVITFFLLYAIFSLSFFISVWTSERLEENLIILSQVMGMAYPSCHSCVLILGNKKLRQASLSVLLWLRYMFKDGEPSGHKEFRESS
The conditions noted are these: for EC50: read-out: Log EC50 (converted). The source says: calcium imaging (Fluo-4) dose-response, HEK293T on TAS2R14

The target of the next test is T2, TAS2R41 (Homo sapiens, UniProt P59536).
T2 construct: full ORF from human genomic DNA with N-terminal rhodopsin tag (first 20 residues), pCI; HEK293T with Galpha16/gust44
T2 sequence (P59536 1-307): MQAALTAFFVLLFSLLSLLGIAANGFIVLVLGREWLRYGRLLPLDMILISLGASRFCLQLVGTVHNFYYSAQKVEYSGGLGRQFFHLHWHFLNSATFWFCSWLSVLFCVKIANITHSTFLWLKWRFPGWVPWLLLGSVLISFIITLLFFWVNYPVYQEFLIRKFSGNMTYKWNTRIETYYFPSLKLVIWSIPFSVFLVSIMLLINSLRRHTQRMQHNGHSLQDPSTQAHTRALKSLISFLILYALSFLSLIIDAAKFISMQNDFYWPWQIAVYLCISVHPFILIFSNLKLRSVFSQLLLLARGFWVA
From the text: calcium imaging (Fluo-4) dose-response, HEK293T on TAS2R41

Another test deals with T3, TAS2R10 (Homo sapiens, UniProt Q9NYW0).
T3 construct: full ORF from human genomic DNA with N-terminal rhodopsin tag (first 20 residues), pCI; HEK293T with Galpha16/gust44
T3 sequence (Q9NYW0 1-307): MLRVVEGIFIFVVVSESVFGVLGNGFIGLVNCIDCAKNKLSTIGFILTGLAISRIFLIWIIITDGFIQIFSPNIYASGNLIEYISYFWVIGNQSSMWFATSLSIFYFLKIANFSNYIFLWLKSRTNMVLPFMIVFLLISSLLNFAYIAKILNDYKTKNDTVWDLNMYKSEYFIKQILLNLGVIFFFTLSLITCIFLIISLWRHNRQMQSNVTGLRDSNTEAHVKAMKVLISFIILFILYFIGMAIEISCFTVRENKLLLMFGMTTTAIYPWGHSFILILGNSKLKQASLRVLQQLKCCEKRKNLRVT
Conditions: for EC50: read-out: Log EC50 (converted). From the text: calcium imaging (Fluo-4) dose-response, HEK293T on TAS2R10

The target in another test is T4, TAS2R4 (Homo sapiens, UniProt Q9NYW5).
T4 construct: full ORF from human genomic DNA with N-terminal rhodopsin tag (first 20 residues), pCI; HEK293T with Galpha16/gust44
T4 sequence (Q9NYW5 1-299): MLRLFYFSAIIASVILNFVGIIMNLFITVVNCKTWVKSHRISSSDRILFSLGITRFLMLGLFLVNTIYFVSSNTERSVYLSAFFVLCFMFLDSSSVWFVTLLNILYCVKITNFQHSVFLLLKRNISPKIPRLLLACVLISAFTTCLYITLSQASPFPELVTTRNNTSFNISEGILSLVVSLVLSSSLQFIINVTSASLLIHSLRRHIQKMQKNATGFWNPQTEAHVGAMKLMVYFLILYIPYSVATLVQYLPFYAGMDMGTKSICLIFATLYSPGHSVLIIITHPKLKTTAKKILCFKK
The source says: calcium imaging (Fluo-4) dose-response, HEK293T on TAS2R4

The target of another test is T5, TAS2R39 (Homo sapiens, UniProt P59534).
T5 construct: full ORF from human genomic DNA with N-terminal rhodopsin tag (first 20 residues), pCI; HEK293T with Galpha16/gust44
T5 sequence (P59534 1-338): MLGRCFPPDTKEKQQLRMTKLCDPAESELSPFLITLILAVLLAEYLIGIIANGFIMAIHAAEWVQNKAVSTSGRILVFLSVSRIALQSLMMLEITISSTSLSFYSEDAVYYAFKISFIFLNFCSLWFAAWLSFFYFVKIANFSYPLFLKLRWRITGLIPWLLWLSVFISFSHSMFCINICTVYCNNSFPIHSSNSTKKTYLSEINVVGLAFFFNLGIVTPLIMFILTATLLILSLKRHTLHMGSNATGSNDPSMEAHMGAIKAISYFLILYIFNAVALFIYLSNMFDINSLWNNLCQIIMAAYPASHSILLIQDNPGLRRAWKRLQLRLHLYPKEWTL
From the text: calcium imaging (Fluo-4) dose-response, HEK293T on TAS2R39

For the next test, the target named is T6, TAS2R46 (Homo sapiens, UniProt P59540).
T6 construct: full ORF from human genomic DNA with N-terminal rhodopsin tag (first 20 residues), pCI; HEK293T with Galpha16/gust44
T6 sequence (P59540 1-309): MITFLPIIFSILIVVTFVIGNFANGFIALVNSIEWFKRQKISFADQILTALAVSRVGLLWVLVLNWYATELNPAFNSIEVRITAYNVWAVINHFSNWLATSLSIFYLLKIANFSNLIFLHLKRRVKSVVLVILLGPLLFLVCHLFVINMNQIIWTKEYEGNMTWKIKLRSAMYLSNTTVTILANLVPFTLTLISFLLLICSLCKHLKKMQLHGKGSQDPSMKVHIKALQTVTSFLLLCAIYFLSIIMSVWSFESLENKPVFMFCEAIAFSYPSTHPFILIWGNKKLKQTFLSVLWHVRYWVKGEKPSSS
The source says: calcium imaging (Fluo-4) dose-response, HEK293T on TAS2R46

For another test, the target named is T7, TAS2R16 (Homo sapiens, UniProt Q9NYV7).
T7 construct: full ORF from human genomic DNA with N-terminal rhodopsin tag (first 20 residues), pCI; HEK293T with Galpha16/gust44
T7 sequence (Q9NYV7 1-291): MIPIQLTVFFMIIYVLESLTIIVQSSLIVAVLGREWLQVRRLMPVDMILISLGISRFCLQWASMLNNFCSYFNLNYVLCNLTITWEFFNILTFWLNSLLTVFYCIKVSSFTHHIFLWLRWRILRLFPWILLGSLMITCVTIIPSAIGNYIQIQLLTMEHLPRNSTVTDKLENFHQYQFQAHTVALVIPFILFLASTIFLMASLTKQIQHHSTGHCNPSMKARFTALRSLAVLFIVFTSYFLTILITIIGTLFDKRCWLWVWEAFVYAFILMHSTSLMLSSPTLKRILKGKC
The source says: calcium imaging (Fluo-4) dose-response, HEK293T on TAS2R16

Turning to `c1ccc(CC2=NCCN2)cc1` [ww3], on TAS2R14, the pEC50 was 2.89.
Turning to `N=C(N)NC(=N)Nc1ccccc1` [compound 1, 1], the pEC50 was 2.48 on TAS2R41, 2.81 on TAS2R10, 2.43 on TAS2R4 and 3.12 on TAS2R14.
Take `COc1cc(/C=C\C(=O)O)cc(S(=O)(=O)Nc2ccc(C(=O)O)cc2)c1OC` [compound 5, 5]: the pEC50 on TAS2R39 was 4.08; on TAS2R10 it was 2.40; at TAS2R14, 3.63; on TAS2R46 it was 3.86.
Regarding `COc1ccccc1C=O` [compound 4, 4], the EC50 on TAS2R10 was 4000 µM; on TAS2R14, 1230 µM.
Turning to `NC(=O)c1ccccc1O` [compound 2, 2], the figures for the concentration giving a half-maximal response (EC50) at TAS2R10 and on TAS2R14 were 9750 µM and 356 µM, respectively. Besides, on TAS2R16, the pEC50 is 3.31.

By pEC50 is commonly meant −log10 of the EC50, conventionally taken in molar units. The EC50 is the concentration at which the effect is half-maximal.
